Assay results taken from ChEMBL document CHEMBL4373695, “Structure-Based Design of 5-Methylpyrimidopyridone Derivatives as New Wild-Type Sparing Inhibitors of the Epidermal Growth Factor Receptor Triple Mutant (EGFRL858R/T790M/C797S)” (J Med Chem, 2019).
The source made the active and inactive calls. The calls are words filed in the database; no cut-off is given here.

How the values were obtained:
[1] = molecular target: Epidermal growth factor receptor (Homo sapiens, UniProt P00533, T790M/C797S/L858R); assay: (§1) Inhibition of human C-terminal His-tagged and N-terminal GST-tagged EGFR L858R/T790M/C797S triple mutant ( 668 to 1210 amino acids) expressed in baculovirus infected Sf9 insect cells using Poly(Glu,Tyr) 4:1 as substrate after 60 mins by ELISA; conditions: sf9
[2] = molecular target: T1, Epidermal growth factor receptor (Homo sapiens, UniProt P00533); assay: Inhibition of wild-type EGFR (unknown origin) using Poly(Glu,Tyr) 4:1 as substrate after 60 mins by ELISA
[3] = molecular target: Epidermal growth factor receptor (Homo sapiens, UniProt P00533, C797S/L858R/T790M); assay: as §1
[4] = molecular target: T1, Epidermal growth factor receptor; assay: Inhibition of wild-type EGFR (unknown origin) transfected in human A431 cells assessed as reduction in EGF-induced EGFR phosphorylation at 0.1 to 3 uM by Western blot analysis; type: cell-based
[5] = Metabolic stability in rat liver microsomes preincubated for 5 mins followed by NADPH addition and measured after 5 to 45 mins by LC/MS analysis; type: ADME, Microsome
BaF3 = assay: Antiproliferative activity against mouse BAF3 cells harboring EGFR L858R/T790M/C797S triple mutant after 72 hrs by resazurin dye-based fluorescence assay; type: functional, cell-based; conditions: BaF3, 72 h
[6] = Aqueous solubility of the compound at 2 mg at pH 7.4 after 24 hrs by LC-MS/MS analysis; type: physicochemical; conditions: pH 7.4, 24 h
[7] = system: Epidermal growth factor receptor (Homo sapiens), P00533 [L858R,T790M,C797S]; assay: Inhibition of EGFR L858R/T790M/C797S triple mutant (unknown origin) transfected in mouse BAF3 cells assessed as reduction in EGF-induced EGFR phosphorylation at 0.1 to 3 uM by Western blot analysis; type: cell-based
[8] = Permeability of the compound in human Caco2 cells at 10 uM after 120 mins by LC-MS/MS analysis; type: ADME, cell-based; conditions: caco-2, 2 h

Chain of Epidermal growth factor receptor (Homo sapiens, UniProt P00533, C797S/L858R/T790M) (P00533 25-1210 T790M/C797S/L858R limits assumed): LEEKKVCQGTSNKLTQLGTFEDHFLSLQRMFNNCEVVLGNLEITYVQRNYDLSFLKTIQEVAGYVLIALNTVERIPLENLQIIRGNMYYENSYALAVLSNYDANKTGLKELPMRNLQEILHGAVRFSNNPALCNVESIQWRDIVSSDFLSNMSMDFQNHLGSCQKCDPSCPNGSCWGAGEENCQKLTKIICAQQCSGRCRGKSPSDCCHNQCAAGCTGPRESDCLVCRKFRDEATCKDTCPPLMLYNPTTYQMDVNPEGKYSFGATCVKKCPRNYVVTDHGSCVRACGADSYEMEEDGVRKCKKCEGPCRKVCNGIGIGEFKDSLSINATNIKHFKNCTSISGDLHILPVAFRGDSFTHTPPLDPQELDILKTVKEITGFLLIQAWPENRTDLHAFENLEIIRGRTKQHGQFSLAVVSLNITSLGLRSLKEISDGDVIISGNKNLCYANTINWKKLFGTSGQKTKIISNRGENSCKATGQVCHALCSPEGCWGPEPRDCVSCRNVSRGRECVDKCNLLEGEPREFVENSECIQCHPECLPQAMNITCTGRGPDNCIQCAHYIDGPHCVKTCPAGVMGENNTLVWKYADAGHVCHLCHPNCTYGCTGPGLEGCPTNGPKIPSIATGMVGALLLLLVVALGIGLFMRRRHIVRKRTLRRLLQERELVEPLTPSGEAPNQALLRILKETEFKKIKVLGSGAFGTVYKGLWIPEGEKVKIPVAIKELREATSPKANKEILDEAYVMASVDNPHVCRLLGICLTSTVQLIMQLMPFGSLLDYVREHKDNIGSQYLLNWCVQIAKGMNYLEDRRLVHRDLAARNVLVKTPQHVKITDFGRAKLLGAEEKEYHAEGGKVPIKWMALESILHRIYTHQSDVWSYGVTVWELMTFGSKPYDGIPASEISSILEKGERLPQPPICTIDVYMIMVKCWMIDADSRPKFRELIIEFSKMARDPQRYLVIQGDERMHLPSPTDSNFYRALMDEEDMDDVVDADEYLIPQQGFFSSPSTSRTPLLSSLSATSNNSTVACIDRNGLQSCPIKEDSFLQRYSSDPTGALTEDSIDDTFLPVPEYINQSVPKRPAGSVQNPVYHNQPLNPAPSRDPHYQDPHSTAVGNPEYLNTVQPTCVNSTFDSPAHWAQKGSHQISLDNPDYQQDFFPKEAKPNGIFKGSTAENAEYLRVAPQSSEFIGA
T1 sequence (P00533 whole entry): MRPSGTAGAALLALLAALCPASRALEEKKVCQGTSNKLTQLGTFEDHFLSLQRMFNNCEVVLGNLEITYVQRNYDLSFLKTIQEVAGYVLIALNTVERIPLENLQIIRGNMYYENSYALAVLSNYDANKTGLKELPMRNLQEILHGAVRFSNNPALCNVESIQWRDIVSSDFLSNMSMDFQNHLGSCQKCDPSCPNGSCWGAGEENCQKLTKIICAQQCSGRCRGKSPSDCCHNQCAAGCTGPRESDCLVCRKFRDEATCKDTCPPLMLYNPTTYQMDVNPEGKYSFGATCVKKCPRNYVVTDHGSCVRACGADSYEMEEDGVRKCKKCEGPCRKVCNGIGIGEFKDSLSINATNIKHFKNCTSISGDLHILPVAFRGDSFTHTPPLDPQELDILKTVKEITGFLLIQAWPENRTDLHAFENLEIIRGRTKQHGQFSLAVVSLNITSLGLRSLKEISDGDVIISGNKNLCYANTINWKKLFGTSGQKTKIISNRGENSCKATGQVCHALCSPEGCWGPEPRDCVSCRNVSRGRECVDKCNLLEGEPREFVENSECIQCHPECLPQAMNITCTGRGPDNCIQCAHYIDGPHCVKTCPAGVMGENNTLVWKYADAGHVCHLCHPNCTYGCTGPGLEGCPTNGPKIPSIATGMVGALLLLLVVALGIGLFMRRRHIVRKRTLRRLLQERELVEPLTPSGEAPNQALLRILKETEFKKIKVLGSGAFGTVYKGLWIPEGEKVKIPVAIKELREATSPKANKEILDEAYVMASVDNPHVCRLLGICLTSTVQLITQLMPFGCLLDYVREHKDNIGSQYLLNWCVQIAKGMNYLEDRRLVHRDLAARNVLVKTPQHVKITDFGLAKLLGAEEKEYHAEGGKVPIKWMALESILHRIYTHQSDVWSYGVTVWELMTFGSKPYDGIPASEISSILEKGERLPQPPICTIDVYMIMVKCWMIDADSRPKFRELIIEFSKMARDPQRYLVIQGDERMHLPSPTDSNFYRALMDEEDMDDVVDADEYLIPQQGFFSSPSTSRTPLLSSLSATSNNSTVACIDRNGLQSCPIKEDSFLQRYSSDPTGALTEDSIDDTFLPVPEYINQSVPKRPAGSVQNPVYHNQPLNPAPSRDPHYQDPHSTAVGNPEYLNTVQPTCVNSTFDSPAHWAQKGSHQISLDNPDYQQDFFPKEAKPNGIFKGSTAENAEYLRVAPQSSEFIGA
Chain of Epidermal growth factor receptor (Homo sapiens, UniProt P00533, T790M/C797S/L858R) (P00533 25-1210 T790M/C797S/L858R limits assumed): as the sequence (P00533 25-1210 T790M/C797S/L858R limits assumed) above
Chain of Epidermal growth factor receptor (Homo sapiens), P00533 [L858R,T790M,C797S] (P00533 whole entry T790M/C797S/L858R): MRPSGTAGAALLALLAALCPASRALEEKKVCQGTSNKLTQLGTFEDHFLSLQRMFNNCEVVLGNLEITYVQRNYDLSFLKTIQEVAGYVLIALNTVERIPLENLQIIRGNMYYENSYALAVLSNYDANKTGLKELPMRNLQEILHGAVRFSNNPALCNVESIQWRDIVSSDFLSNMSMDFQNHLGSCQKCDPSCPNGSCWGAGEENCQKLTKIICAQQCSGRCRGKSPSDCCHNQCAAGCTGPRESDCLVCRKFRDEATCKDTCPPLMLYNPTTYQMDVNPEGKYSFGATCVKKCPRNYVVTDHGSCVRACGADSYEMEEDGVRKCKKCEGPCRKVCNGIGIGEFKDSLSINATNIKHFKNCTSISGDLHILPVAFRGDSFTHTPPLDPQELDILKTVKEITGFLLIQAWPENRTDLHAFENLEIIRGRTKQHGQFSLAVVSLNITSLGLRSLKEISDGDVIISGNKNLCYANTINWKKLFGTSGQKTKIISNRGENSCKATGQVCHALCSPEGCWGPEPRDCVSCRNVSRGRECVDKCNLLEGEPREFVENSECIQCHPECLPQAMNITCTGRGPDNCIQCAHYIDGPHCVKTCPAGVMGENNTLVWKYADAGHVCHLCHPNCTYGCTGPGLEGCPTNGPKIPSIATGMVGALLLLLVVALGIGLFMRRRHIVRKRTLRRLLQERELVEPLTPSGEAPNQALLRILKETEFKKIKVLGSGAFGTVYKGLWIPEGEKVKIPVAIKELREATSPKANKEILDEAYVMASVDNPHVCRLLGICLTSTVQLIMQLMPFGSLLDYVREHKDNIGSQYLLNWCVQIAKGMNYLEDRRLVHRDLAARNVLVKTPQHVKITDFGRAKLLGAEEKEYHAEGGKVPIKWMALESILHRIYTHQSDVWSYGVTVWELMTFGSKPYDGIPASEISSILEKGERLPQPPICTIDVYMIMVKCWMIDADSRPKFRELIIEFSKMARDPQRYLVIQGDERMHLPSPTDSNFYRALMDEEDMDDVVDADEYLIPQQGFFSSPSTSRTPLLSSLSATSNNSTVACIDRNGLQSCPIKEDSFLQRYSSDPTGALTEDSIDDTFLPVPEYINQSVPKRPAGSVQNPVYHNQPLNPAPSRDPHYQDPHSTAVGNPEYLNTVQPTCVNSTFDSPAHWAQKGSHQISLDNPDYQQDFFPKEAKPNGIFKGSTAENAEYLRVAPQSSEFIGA

Structure (SMILES) | IC50 [2] | IC50 [3] | other results
CCC(=O)N1CCC[C@H](n2c(=O)c(-c3ccccc3Cl)c(C)c3cnc(Nc4ccc(N5CCN(C)CC5)c(C)c4)nc32)C1 (stereo in doubt; 8e-B) | > 1000 nM |  | IC50 [1]: > 1000 nM
CCC(=O)N1CCC[C@@H](n2c(=O)c(-c3ccccc3Cl)c(C)c3cnc(Nc4ccc(N5CCN(C)CC5)c(C)c4)nc32)C1 (stereo in doubt; 8f-B) | > 1000 nM | 65.1 nM | 
CCC(=O)N1CCC[C@@H](n2c(=O)c(-c3ccc(F)cc3Cl)c(C)c3cnc(Nc4ccc(N5CCN(C)CC5)c(C)c4)nc32)C1 (stereo in doubt; 8q-B) | > 1000 nM | 88.6 nM | 
CCC(=O)N[C@H]1CC[C@@H](n2c(=O)c(-c3ccccc3Cl)c(C)c3cnc(Nc4ccc(N5CCN(C)CC5)c(C)c4)nc32)CC1 (stereo in doubt; 8c-A) | > 1000 nM | 519 nM | 
CCC(=O)N1CCC[C@@H](n2c(=O)c(-c3ccccc3Br)c(C)c3cnc(Nc4ccc(N5CCN(C)CC5)c(C)c4)nc32)C1 (stereo in doubt; 8l-A) | > 1000 nM | 498 nM | 
CCC(=O)N1CCC[C@@H](n2c(=O)c(-c3ccccc3C)c(C)c3cnc(Nc4ccc(N5CCN(C)CC5)c(C)c4)nc32)C1 (stereo in doubt; 8m-A) | > 1000 nM | 588 nM | 
CCC(=O)N1CCC[C@H](n2c(=O)c(-c3ccccc3Cl)c(C)c3cnc(Nc4ccc(N5CCN(C)CC5)c(C)c4)nc32)C1 (stereo in doubt; 8e-A) | > 1000 nM | > 1000 nM | 
CCC(=O)N1CCC[C@@H](n2c(=O)c(-c3ccccc3C)c(C)c3cnc(Nc4ccc(N5CCN(C)CC5)c(C)c4)nc32)C1 (stereo in doubt; 8m-B) | > 1000 nM | 228 nM | 
CCC(=O)N1CCC[C@@H](n2c(=O)c(-c3ccc(Cl)cc3)c(C)c3cnc(Nc4ccc(N5CCN(C)CC5)c(C)c4)nc32)C1 | > 1000 nM | > 1000 nM | 
CCC(=O)N[C@H]1CC[C@@H](n2c(=O)c(-c3ccccc3Cl)c(C)c3cnc(Nc4ccc(N5CCN(C)CC5)c(C)c4)nc32)CC1 (stereo in doubt; 8c-B) | 169 nM | 27.7 nM | 
CCC(=O)N1CCC[C@@H](n2c(=O)c(-c3ccccc3)c(C)c3cnc(Nc4ccc(N5CCN(C)CC5)c(C)c4)nc32)C1 | > 1000 nM | > 1000 nM | 
CCC(=O)N1CCC[C@@H](n2c(=O)c(-c3cccc(F)c3Cl)c(C)c3cnc(Nc4ccc(N5CCN(C)CC5)c(C)c4)nc32)C1 (stereo in doubt; 8r-B) |  |  | inhibition (INH) [4]: Not Active; Stability [5]: Unstable; IC50 (BaF3): 662 nM; solubility [6]: Soluble; inhibition [7]: Active; permeability [8]: Permeable
CCC(=O)N1CCC[C@@H](n2c(=O)c(-c3cccc(Cl)c3)c(C)c3cnc(Nc4ccc(N5CCN(C)CC5)c(C)c4)nc32)C1 | > 1000 nM | > 1000 nM | 
CCC(=O)N1CCC[C@@H](n2c(=O)c(-c3cc(F)ccc3Cl)c(C)c3cnc(Nc4ccc(N5CCN(C)CC5)c(C)c4)nc32)C1 (stereo in doubt; 8p-A) | > 1000 nM | 207 nM | 
N#Cc1ccc(O)c(-c2nc(NCc3cnccn3)c3ccccc3n2)c1 | > 1000 nM | 38.7 nM | 
CCC(=O)N1CC[C@@H](n2c(=O)c(-c3ccccc3Cl)c(C)c3cnc(Nc4ccc(N5CCN(C)CC5)c(C)c4)nc32)C1 (stereo in doubt; 8g-A) | > 1000 nM | > 1000 nM | 
CCC(=O)N1CC[C@@H](n2c(=O)c(-c3ccccc3Cl)c(C)c3cnc(Nc4ccc(N5CCN(C)CC5)c(C)c4)nc32)C1 (stereo in doubt; 8g-B) | > 1000 nM | 81.7 nM | 
CCC(=O)N1CCC[C@@H](n2c(=O)c(-c3ccccc3Br)c(C)c3cnc(Nc4ccc(N5CCN(C)CC5)c(C)c4)nc32)C1 (stereo in doubt; 8l-B) | > 1000 nM | 56.1 nM | 
CCC(=O)N1CCC[C@@H](n2c(=O)c(-c3ccccc3Cl)c(C)c3cnc(Nc4ccc(N5CCN(C)CC5)c(C)c4)nc32)C1 (stereo in doubt; 8f-A) | > 1000 nM | > 1000 nM | 
CCC(=O)N1CCC[C@@H](n2c(=O)c(-c3ccc(F)cc3Cl)c(C)c3cnc(Nc4ccc(N5CCN(C)CC5)c(C)c4)nc32)C1 (stereo in doubt; 8q-A) | > 1000 nM | 224 nM | 
CCC(=O)N1CCC[C@@H](n2c(=O)c(-c3cc(F)ccc3Cl)c(C)c3cnc(Nc4ccc(N5CCN(C)CC5)c(C)c4)nc32)C1 (stereo in doubt; 8p-B) | > 1000 nM | 37.1 nM | 
